Source: US11738087B2, “Lymph directing prodrugs” (Monash University, priority 2015, dated 2023)

How the values were obtained:
lipoprotein lipase (LPL) = assay: In vitro release of MPA from prodrugs in rat lymph supplemented with lipoprotein lipase; format: in vitro ADME; details: LPL 200 unit/ml, 37° C., n=1; FIG. 10
Experimental: In order to probe the release of free MPA from TG prodrugs in the lymphatics (the active site of MPA is in lymphocytes that are enriched in the lymphatic system), MPA prodrugs were incubated with rat lymph supplemented with lipoprotein lipase (LPL, 200 unit/ml). LPL is a key enzyme required for the hydrolysis of lipoprotein associated TG in normal physiological conditions and is therefore expected to be a key contributor to lipolysis of the re-esterified Drug-TG construct in plasma, largely via liberation of FAs in the sn-1 and the sn-3 position of the TG-mimetic, prior to drug release from the 2′ positon via esterase hydrolysis. LPL is tethered to lymphocytes or lymphatic/vascular endothelial cells under physiological conditions. In the current in vitro studies, rat lymph was therefore supplemented with LPL to better reflect the in vivo situation. To start hydrolysis, 10 μl of LPL solution (10,000 unit/ml) was added to a mixture of 10 μl of prodrug solution (1 mg/ml dissolved in acetonitrile) and 500 μl of blank Sprague Dawley rat lymph. The solution was incubated at 37° C. Samples (20 μl) of the incubation solution were taken at 0, 5, 10, 15, 30, 60, 90, 120 and 180 minutes post incubation and added to 980 μl of 9:1 (v/v) ACN-water to stop lipolysis. […] The supernatant was analysed by HPLC-MS/MS for MPA concentrations.

[1] = Lymphatic transport studies in rats (mesenteric lymph duct cannulated, intraduodenal infusion); details: for Transport of total TST derivatives in lymph (% of dose): intraduodenal infusion, anaesthetised, mesenteric lymph-duct cannulated female SD rats, mean ± SEM (n≥3) or mean ± range (n=2); for Fold increase (compared with control group dosed with TU): lymphatic transport, testosterone series, female SD rats
[2] = Pharmacokinetic (PK) studies in rats after oral gavage (plasma free parent drug); details: for AUC0-24 h fold increase compared with TU group: plasma testosterone exposure; for Tmax / AUC0-24 h: plasma testosterone, mean ± SEM; for AUC0-24 h: normalized to 2 mg/kg equivalent testosterone dose; for Cmax: read-out: Cmax (nmol/L), plasma testosterone, conscious carotid artery cannulated SD female rats, normalized to 2 mg/kg equivalent testosterone dose, mean ± SEM
[3] = system: porcine pancreatic lipase; assay: In vitro hydrolysis of compounds by porcine pancreatic lipase (stability of monoglyceride forms); format: in vitro ADME; details: simulated intestinal micellar solution, pH 6.5, 37° C., up to 180 minutes; FIG. 9
Experimental: In vitro hydrolysis of testosterone prodrugs was performed via incubation with porcine pancreatic lipase. Briefly, pancreatic lipase solution was prepared prior to the hydrolysis experiment by dispersion of 1 g porcine pancreatin in 5 ml of lipolysis buffer. The suspension was mixed well and centrifuged at 3500 rpm for 15 minutes at 5° C. to provide a supernatant. An amount of 1000 ml of lipolysis buffer was prepared with 0.474 g of tris-maleate (2 mM), 0.206 g of CaCl2·H2O (1.4 mM) and 8.775 g of NaCl (150 mM) adjusted with NaOH to pH 6.5. To assess the potential for prodrug hydrolysis in the intestine, 20 μl of prodrug solution (1 mg/ml dissolved in acetonitrile), 900 μl of simulated intestinal micellar solution [prepared with 0.783 g of NaTDC (3 mM) and 0.291 g of phosphatidyl choline (0.75 mM) in 500 ml lipolysis buffer] and 100 μl of enzyme solution were incubated at 37° C. […] The supernatant was analysed by HPLC-MS for residual compound concentrations, and the potential products of compound hydrolysis were analysed.
On incubation with digestive enzymes, the monoglycerides forms of the prodrugs are formed very rapidly. The stability in simulated intestinal conditions is therefore better assessed by the stability of the monoglycerides form that is generated by the initial digestion process. […]

[4] = 'is thought to be'; cited from earlier work

Compound | Release of MPA on incubation with LPL supplemented rat lymph (lipoprotein lipase (LPL)) | Transport of total TST derivatives in lymph (% of dose) [1] | AUC0-24 h fold increase compared with TU group ([2]; SD female rats) | Tmax ([2]; SD female rats) [h] | AUC0-24 h ([2]; SD female rats) [µM·h] | Cmax [2] [nmol/L] | Stability of the monoglyceride form during in vitro incubation with porcine pancreatic lipase [3] | Fold increase (compared with control group dosed with TU) [1] | further results
CCCCCCCCCCCCCCCC(=O)OCC(COC(=O)CCCCCCCCCCCCCCC)OC(=O)CC(C)CC(=O)OCOC(=O)CC/C(C)=C/Cc1c(O)c2c(c(C)c1OC)COC2=O (stereo not shown) [Compound 10, (E)-1-(1,3-Bis(palmitoyloxy)propan-2-yl) 5-(((6-(4-hydroxy-6-methoxy-7-methyl-3-oxo-1,3-dihydroisobenzofuran-5-yl)-4-methylhex-4-enoyl)oxy)methyl) 3-methyl-pentanedioate] | very rapid | – | – | – | – | – | – | – | –
C[C@]12CC[C@H]3[C@@H](CCC4=CC(=O)CC[C@@]43C)[C@@H]1CC[C@@H]2O [Testosterone, testosterone] | – | Below LOQ* | – | – | – | – | – | – | –
1-(1,3-Bis(palmitoyloxy)propan-2-yl) 4-((((8R,9S,10R,13S,14S,17S)-10,13-dimethyl-3-oxo-2,3,6,7,8,9,10,11,12,13,14,15,16,17-tetradecahydro-1H-cyclopenta[a]phen-anthren-17-yl)oxy)methyl) 2/3-methylsuccinate [Compounds 13/14] | – | 8.0 ± 2.5 % of dose | 94.6 | 1.4 ± 0.1 | 0.6453 ± 0.1449 | 568 ± 155 | much more stable | 4.2 | Systemic exposure of testosterone, fold higher than Compound 12 ([2]; SD female rats): ~13 fold
CCCCCCCCCCCCCCCC(=O)OCC(COC(=O)CCCCCCCCCCCCCCC)OC(=O)CCC(=O)OCO[C@H]1CC[C@H]2[C@@H]3CCC4=CC(=O)CC[C@]4(C)[C@H]3CC[C@]12C [Compound 12, 1,3-Bis(palmitoyloxy)propan-2-yl ((((8R,9S,10R,13S,14S,17S)-10,13-dimethyl-3-oxo-2,3,6,7,8,9,10,11,12,13,14,15,16,17-tetradecahydro-1H-cyclopenta[a]phenanthren-17-yl)oxy)methyl) succinate] | – | – | – | – | – | – | labile | – | –
CCCCCCCCCCCCCCCC(=O)OCC(COC(=O)CCCCCCCCCCCCCCC)OC(=O)CC(C)CC(=O)OC(C)OC(=O)CC/C(C)=C/Cc1c(O)c2c(c(C)c1OC)COC2=O (stereo not shown) [Compound 11, (E)-1-(1,3-Bis(palmitoyloxy)propan-2-yl) 5-(1-((6-(4-hydroxy-6-methoxy-7-methyl-3-oxo-1,3-dihydroisobenzofuran-5-yl)-4-methylhex-4-enoyl)oxy)ethyl) 3-methylpentanedioate] | very rapid | – | – | – | – | – | – | – | –
CCCCCCCCCCC(=O)O[C@H]1CC[C@H]2[C@@H]3CCC4=CC(=O)CC[C@]4(C)[C@H]3CC[C@]12C [TU, testosterone undecanoate, reference compound] | – | 1.9 ± 0.3 % of dose | 1.0 | 1.5 ± 0.0 | 0.0068 ± 0.0004 | 5.6 ± 0.5 | – | 1.0 | Bioavailability of testosterone after oral administration of the undecanoate ester [4]: < 5%
